How the values were obtained:
[1] = test system: FAP-expressing HEK293T:hFAP tumor xenografts; assay: Ex vivo biodistribution in HEK293T:hFAP tumor-bearing mice; conditions: 1 h post injection, mean ± SD, n = 4
Description: Biodistribution studies were also conducted at 1 h post injection with [^68Ga]Ga-AV01017, [^68Ga]Ga-AV01030, [^68Ga]Ga-AV01038, [^68Ga]Ga-HTK03041, and [^68Ga]Ga-FAPI-04 in HEK293T:hFAP tumor-bearing mice (Figure 6 and Table S5, Supplementary Materials). Tumor uptake values for [^68Ga]Ga-AV01017, [^68Ga]Ga-AV01030, [^68Ga]Ga-AV01038, [^68Ga]Ga-HTK03041, and [^68Ga]Ga-FAPI-04 were 2.99 ± 0.37, 3.69 ± 0.81, 3.64 ± 0.83, 0.62 ± 0.19, and 12.5 ± 2.00 %ID/g, respectively. There was a very low tumor uptake in mice injected with [^68Ga]Ga-HTK03041, showing very minimal FAP expression in this tumor model. The uptake levels of these tracers on the major organs and tissues are consistent with the trends observed in the LNCaP tumor-baring mice (Figure 5 and Supplemental Table S4).
(§1) Imaging and biodistribution studies were performed using male NOD.Cg-Rag1tm1Mom Il2rgtm1Wjl/SzJ (NRG) mice following previously published procedures. The experiments were conducted according to the guidelines established by the Canadian Council on Animal Care and approved by Animal Ethics Committee of the University of British Columbia. The mice were briefly sedated by inhalation of 2.5% isoflurane in oxygen, and 100 µL LNCaP (2 × 10^5 cells) or HEK293T:hFAP (8.5 × 10^6 cells) cells were inoculated subcutaneously behind the left shoulder. When the tumor grew to 5–8 mm in diameter over 3–4 weeks and 4–5 weeks for HEK293T:hFAP and LNCaP tumors, respectively, the mice were used for PET/CT imaging and biodistribution studies.
(§2) For biodistribution studies, the mice were injected with the radiotracer (~2–4 MBq) as described above. At 1 h post injection, the mice were euthanized by CO2 inhalation. Blood was withdrawn by cardiac puncture, and organs/tissues of interest were collected, weighed, and counted using a Perkin Elmer (Waltham, MA, USA) Wizard2 2480 automatic gamma counter.

[2] = test system: PSMA-expressing LNCaP tumor xenografts; assay: Ex vivo biodistribution in LNCaP tumor-bearing mice; conditions: LNCaP tumor-bearing mice, 1 h post injection, mean ± SD, n = 4
Description: Biodistribution studies were conducted at 1 h post injection with ^68Ga-labeled AV01017, AV01030, AV01038, HTK03041, and FAPI-04 in LNCaP tumor-bearing mice (Figure 5 and Table S4, Supplementary Materials). The results were consistent with the observation from their PET images. Tumor uptake values for [^68Ga]Ga-AV01017, [^68Ga]Ga-AV01030, [^68Ga]Ga-AV01038, [^68Ga]Ga-HTK03041, and [^68Ga]Ga-FAPI-04 were 4.38 ± 0.55, 5.17 ± 0.51, 4.25 ± 0.86, 23.1 ± 6.11, and 3.15 ± 1.43 %ID/g, respectively. […] Although not statistically significant, the bispecific tracers with a longer linker tend to have a higher blood uptake value (9.24 ± 1.55 %ID/g for [^68Ga]Ga-AV01017; 7.07 ± 0.31%ID/g for [^68Ga]Ga-AV01038; 5.75 ± 0.59 %ID/g for [^68Ga]Ga-AV01030) and a lower tumor-to-blood ratio (0.48 ± 0.11 for [^68Ga]Ga-AV01017; 0.60 ± 0.13 for [^68Ga]Ga-AV01038; 0.89 ± 0.03 for [^68Ga]Ga-AV01030).
as §1, §2

N#C[C@@H]1CC(F)(F)CN1C(=O)CNC(=O)c1ccnc2ccc(OCCCc3cn(CC(=O)N[C@@H](CCCCNC(=O)CN4CCN(CC(=O)[O-])CCN(CC(=O)[O-])CCN(CC(=O)[O-])CC4)C(=O)NCC(=O)NC[C@H]4CC[C@H](C(=O)N[C@@H](Cc5c6ccccc6cc6ccccc56)C(=O)NCCCC[C@H](NC(=O)N[C@@H](CCC(=O)O)C(=O)O)C(=O)O)CC4)nn3)cc12.[68Ga+3] [[^68Ga]Ga-AV01017]
Adrenal glands uptake [1]: 4.06 ± 0.27 %ID/g
Blood uptake [1]: 11.9 ± 3.37 %ID/g
Bone uptake [1]: 5.26 ± 0.32 %ID/g
Brain uptake [1]: 0.21 ± 0.07 %ID/g
Fat uptake [1]: 0.61 ± 0.13 %ID/g
HEK293T:hFAP tumor uptake [1]: 2.99 ± 0.37 %ID/g
Heart uptake [1]: 4.63 ± 0.42 %ID/g
Kidneys uptake [1]: 19.3 ± 2.25 %ID/g
Lacrimal gland uptake [1]: 1.34 ± 0.50 %ID/g
Large Intestine uptake [1]: 1.44 ± 0.20 %ID/g
Liver uptake [1]: 3.40 ± 0.64 %ID/g
Lungs uptake [1]: 5.50 ± 1.26 %ID/g
Muscle uptake [1]: 1.63 ± 0.06 %ID/g
Pancreas uptake [1]: 3.80 ± 0.25 %ID/g
Salivary glands uptake [1]: 6.43 ± 1.03 %ID/g
Seminal vesicle uptake [1]: 1.15 ± 0.33 %ID/g
Small Intestine uptake [1]: 2.14 ± 0.65 %ID/g
Spleen uptake [1]: 3.63 ± 3.60 %ID/g
Stomach uptake [1]: 0.63 ± 0.08 %ID/g
Testes uptake [1]: 1.15 ± 0.86 %ID/g
Thyroid uptake [1]: 10.7 ± 2.15 %ID/g
Tumor/blood uptake ratio [1]: 0.18 ± 0.08
Tumor/bone uptake ratio [1]: 0.44 ± 0.12
Tumor/kidney uptake ratio [1]: 0.11 ± 0.03
Tumor/muscle uptake ratio [1]: 1.25 ± 0.17
Adrenal glands uptake [2]: 6.24 ± 2.31 %ID/g
Blood uptake [2]: 9.24 ± 1.55 %ID/g
Bone uptake [2]: 4.05 ± 0.86 %ID/g
Brain uptake [2]: 0.18 ± 0.01 %ID/g
Fat uptake [2]: 1.01 ± 0.48 %ID/g
Heart uptake [2]: 4.04 ± 0.28 %ID/g
Kidneys uptake [2]: 30.9 ± 6.89 %ID/g
LNCaP tumor uptake [2]: 4.38 ± 0.55 %ID/g
Lacrimal glands uptake [2]: 0.13 ± 0.27 %ID/g
Large Intestine uptake [2]: 1.76 ± 0.21 %ID/g
Liver uptake [2]: 2.24 ± 0.34 %ID/g
Lungs uptake [2]: 3.76 ± 0.66 %ID/g
Muscle uptake [2]: 1.91 ± 0.43 %ID/g
Pancreas uptake [2]: 5.38 ± 1.29 %ID/g
Salivary glands uptake [2]: 5.98 ± 4.00 %ID/g
Seminal vesicle uptake [2]: 1.12 ± 0.21 %ID/g
Small Intestine uptake [2]: 2.47 ± 0.48 %ID/g
Spleen uptake [2]: 3.73 ± 1.19 %ID/g
Stomach uptake [2]: 0.64 ± 0.11 %ID/g
Testes uptake [2]: 0.69 ± 0.06 %ID/g
Thyroid uptake [2]: 12.7 ± 2.72 %ID/g
Tumor/blood uptake ratio [2]: 0.48 ± 0.11
Tumor/bone uptake ratio [2]: 1.10 ± 0.15
Tumor/kidney uptake ratio [2]: 0.14 ± 0.03
Tumor/muscle uptake ratio [2]: 2.35 ± 0.35

N#C[C@@H]1CC(F)(F)CN1C(=O)CNC(=O)c1ccnc2ccc(OCc3cn(CC(=O)N[C@@H](CCCCNC(=O)CN4CCN(CC(=O)[O-])CCN(CC(=O)[O-])CCN(CC(=O)[O-])CC4)C(=O)NCC(=O)NC[C@H]4CC[C@H](C(=O)N[C@@H](Cc5c6ccccc6cc6ccccc56)C(=O)NCCCC[C@H](NC(=O)N[C@@H](CCC(=O)O)C(=O)O)C(=O)O)CC4)nn3)cc12.[68Ga+3] [[^68Ga]Ga-AV01038]
Adrenal glands uptake [1]: 6.14 ± 3.79 %ID/g
Blood uptake [1]: 7.45 ± 1.70 %ID/g
Bone uptake [1]: 3.03 ± 1.12 %ID/g
Brain uptake [1]: 0.13 ± 0.02 %ID/g
Fat uptake [1]: 0.53 ± 0.10 %ID/g
HEK293T:hFAP tumor uptake [1]: 3.64 ± 0.83 %ID/g
Heart uptake [1]: 2.69 ± 0.22 %ID/g
Kidneys uptake [1]: 25.0 ± 1.76 %ID/g
Lacrimal gland uptake [1]: 0.22 ± 0.16 %ID/g
Large Intestine uptake [1]: 0.99 ± 0.17 %ID/g
Liver uptake [1]: 2.16 ± 0.33 %ID/g
Lungs uptake [1]: 3.83 ± 0.55 %ID/g
Muscle uptake [1]: 1.23 ± 0.11 %ID/g
Pancreas uptake [1]: 3.82 ± 1.29 %ID/g
Salivary glands uptake [1]: 4.02 ± 0.69 %ID/g
Seminal vesicle uptake [1]: 1.15 ± 0.69 %ID/g
Small Intestine uptake [1]: 1.70 ± 0.19 %ID/g
Spleen uptake [1]: 5.47 ± 1.03 %ID/g
Stomach uptake [1]: 0.60 ± 0.18 %ID/g
Testes uptake [1]: 0.74 ± 0.09 %ID/g
Thyroid uptake [1]: 6.51 ± 1.07 %ID/g
Tumor/blood uptake ratio [1]: 0.49 ± 0.37
Tumor/bone uptake ratio [1]: 1.17 ± 0.40
Tumor/kidney uptake ratio [1]: 0.11 ± 0.02
Tumor/muscle uptake ratio [1]: 2.21 ± 0.17
Adrenal glands uptake [2]: 3.69 ± 2.54 %ID/g
Blood uptake [2]: 7.07 ± 0.31 %ID/g
Bone uptake [2]: 4.64 ± 1.70 %ID/g
Brain uptake [2]: 0.15 ± 0.02 %ID/g
Fat uptake [2]: 1.01 ± 0.28 %ID/g
Heart uptake [2]: 3.26 ± 0.24 %ID/g
Kidneys uptake [2]: 40.5 ± 8.26 %ID/g
LNCaP tumor uptake [2]: 4.25 ± 0.86 %ID/g
Lacrimal glands uptake [2]: 0.06 ± 0.13 %ID/g
Large Intestine uptake [2]: 1.65 ± 0.31 %ID/g
Liver uptake [2]: 2.06 ± 0.13 %ID/g
Lungs uptake [2]: 3.74 ± 0.78 %ID/g
Muscle uptake [2]: 1.68 ± 0.21 %ID/g
Pancreas uptake [2]: 3.91 ± 0.20 %ID/g
Salivary glands uptake [2]: 6.41 ± 1.19 %ID/g
Seminal vesicle uptake [2]: 1.51 ± 0.08 %ID/g
Small Intestine uptake [2]: 2.12 ± 0.24 %ID/g
Spleen uptake [2]: 6.77 ± 4.86 %ID/g
Stomach uptake [2]: 0.64 ± 0.11 %ID/g
Testes uptake [2]: 1.04 ± 0.10 %ID/g
Thyroid uptake [2]: 11.1 ± 1.62 %ID/g
Tumor/blood uptake ratio [2]: 0.60 ± 0.13
Tumor/bone uptake ratio [2]: 0.97 ± 0.30
Tumor/kidney uptake ratio [2]: 0.10 ± 0.02
Tumor/muscle uptake ratio [2]: 2.52 ± 0.33
